Source: ChEMBL document CHEMBL5550090, “Synthesis and biological evaluation of 1H-pyrrolo[3,2-g]isoquinolines” (Bioorg Med Chem, 2024)

Assays:
U2OS [1] = test: Induction of cell cycle arrest in human U2OS cells assessed as proportion of cells at G2/M phase at 0.5 uM incubated for 24 hrs by flow cytometry (reference value: 16%); type: functional
U2OS [2] = test: Induction of cell cycle arrest in human U2OS cells assessed as proportion of cells at G1 phase at 0.5 uM incubated for 24 hrs by flow cytometry (reference value: 45%); type: functional
U2OS [3] = test: Induction of cell cycle arrest in human U2OS cells assessed as proportion of cells at S phase at 0.5 uM incubated for 24 hrs by flow cytometry (reference value: 39%); type: functional
U2OS [4] = test: Induction of cell cycle arrest in human U2OS cells assessed as proportion of cells at G1 phase at 5 uM incubated for 24 hrs by flow cytometry (reference value: 45%); type: functional
U2OS [5] = test: Induction of cell cycle arrest in human U2OS cells assessed as proportion of cells at S phase at 2.5 uM incubated for 24 hrs by flow cytometry (reference value: 39%); type: functional
[6] = molecular target: T1, Serine/threonine-protein kinase haspin (Homo sapiens, UniProt Q8TF76); test: Inhibition of recombinant human Haspin kinase domain (470 to 798 residues) expressed in bacteria using histone H3 (1 to 21) peptide as substrate incubated for 30 mins in presence of ATP by ADP-Glo kinase assay
T1 sequence (Q8TF76 whole entry): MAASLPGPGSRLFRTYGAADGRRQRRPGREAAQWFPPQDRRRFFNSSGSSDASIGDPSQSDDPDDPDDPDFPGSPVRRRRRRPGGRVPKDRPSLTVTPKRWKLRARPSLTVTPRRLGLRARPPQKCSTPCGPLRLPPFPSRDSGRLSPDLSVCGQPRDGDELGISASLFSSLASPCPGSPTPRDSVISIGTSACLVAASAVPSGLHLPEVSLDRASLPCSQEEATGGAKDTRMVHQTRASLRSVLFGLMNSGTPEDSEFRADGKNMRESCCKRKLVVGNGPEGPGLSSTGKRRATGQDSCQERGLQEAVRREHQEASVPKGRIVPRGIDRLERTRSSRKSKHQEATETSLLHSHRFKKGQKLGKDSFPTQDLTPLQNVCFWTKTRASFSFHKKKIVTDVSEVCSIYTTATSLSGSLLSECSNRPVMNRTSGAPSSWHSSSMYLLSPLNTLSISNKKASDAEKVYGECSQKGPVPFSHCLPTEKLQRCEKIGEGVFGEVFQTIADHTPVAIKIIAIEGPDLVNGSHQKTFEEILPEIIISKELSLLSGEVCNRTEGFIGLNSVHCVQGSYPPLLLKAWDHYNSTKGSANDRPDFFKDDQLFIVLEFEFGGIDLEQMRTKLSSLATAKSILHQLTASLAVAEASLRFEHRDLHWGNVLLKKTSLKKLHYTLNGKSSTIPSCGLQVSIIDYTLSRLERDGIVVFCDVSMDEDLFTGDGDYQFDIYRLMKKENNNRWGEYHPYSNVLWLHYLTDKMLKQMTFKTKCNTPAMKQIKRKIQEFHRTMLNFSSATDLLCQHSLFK

[7] = molecular target: T2, Cyclin-dependent kinase 5/CDK5 activator 1 (Homo sapiens) (UniProt Q00535+Q15078); test: Inhibition of human recombinant CDK5/p25 expressed in bacteria assessed as enzyme residual activity using histone H1 as substrate at 10 uM incubated for 30 mins in presence of ATP by ADP-Glo kinase assay
T2 sequence (Q00535 whole entry): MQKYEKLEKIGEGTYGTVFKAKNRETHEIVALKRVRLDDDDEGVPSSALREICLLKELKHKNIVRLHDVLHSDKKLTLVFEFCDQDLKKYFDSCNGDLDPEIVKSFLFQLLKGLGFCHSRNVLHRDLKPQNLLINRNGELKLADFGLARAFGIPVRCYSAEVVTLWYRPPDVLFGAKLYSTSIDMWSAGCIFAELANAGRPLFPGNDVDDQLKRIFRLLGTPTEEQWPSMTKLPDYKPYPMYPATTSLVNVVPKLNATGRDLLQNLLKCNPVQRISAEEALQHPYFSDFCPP
T2 sequence (Q15078 99-307 partner limits assumed): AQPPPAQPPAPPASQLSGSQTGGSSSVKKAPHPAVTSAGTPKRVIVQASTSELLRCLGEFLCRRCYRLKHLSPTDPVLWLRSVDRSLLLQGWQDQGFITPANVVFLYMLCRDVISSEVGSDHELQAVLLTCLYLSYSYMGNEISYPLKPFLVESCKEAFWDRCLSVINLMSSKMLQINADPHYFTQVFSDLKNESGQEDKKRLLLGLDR

U2OS [8] = test: cells; conditions: Homo sapiens, 48 h
Description: Antiproliferative activity against human U2OS cells assessed as reduction in cell viability incubated for 48 hrs by MTS assay

[9] = molecular target: T3, Serine/threonine-protein kinase pim-1 (Homo sapiens, UniProt P11309); test: Inhibition of human recombinant PIM-1 expressed in bacteria using histone H1 as substrate incubated for 30 mins in presence of ATP by ADP-Glo kinase assay
Target sequence in this assay (P11309 whole entry): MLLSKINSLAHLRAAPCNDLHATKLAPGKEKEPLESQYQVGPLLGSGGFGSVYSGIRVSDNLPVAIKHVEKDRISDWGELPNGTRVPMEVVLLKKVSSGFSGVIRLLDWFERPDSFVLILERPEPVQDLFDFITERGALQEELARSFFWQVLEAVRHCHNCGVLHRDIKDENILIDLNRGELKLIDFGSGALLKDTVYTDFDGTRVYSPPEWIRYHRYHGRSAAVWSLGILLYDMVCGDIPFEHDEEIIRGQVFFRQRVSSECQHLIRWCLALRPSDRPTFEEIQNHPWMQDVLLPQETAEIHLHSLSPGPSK

[10] = molecular target: Dual specificity protein kinase CLK1 (Mus musculus) (UniProt P22518); test: Inhibition of recombinant mouse CLK1 expressed in bacteria assessed as enzyme residual activity using GRSRSRSRSRSR as substrate at 1 uM incubated for 30 mins in presence of ATP by ADP-Glo kinase assay
Dual specificity protein kinase CLK1 (Mus musculus), sequence (P22518 whole entry, looked up): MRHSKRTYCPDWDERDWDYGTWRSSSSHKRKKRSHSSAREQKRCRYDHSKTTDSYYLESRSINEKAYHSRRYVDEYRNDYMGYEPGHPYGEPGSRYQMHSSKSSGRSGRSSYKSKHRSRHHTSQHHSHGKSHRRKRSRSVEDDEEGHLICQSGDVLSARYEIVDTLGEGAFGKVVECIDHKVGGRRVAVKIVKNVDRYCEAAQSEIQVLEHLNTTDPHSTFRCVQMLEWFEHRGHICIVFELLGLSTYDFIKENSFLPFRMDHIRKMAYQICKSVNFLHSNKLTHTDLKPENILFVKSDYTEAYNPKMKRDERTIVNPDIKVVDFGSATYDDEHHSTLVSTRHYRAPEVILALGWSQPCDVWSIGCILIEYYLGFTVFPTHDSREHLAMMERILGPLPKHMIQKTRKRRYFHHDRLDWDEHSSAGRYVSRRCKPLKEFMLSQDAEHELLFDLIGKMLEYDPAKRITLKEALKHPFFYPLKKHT

U2OS [11] = test: Induction of cell cycle arrest in human U2OS cells assessed as proportion of cells at G1 phase at 2.5 uM incubated for 24 hrs by flow cytometry (reference value: 45%); type: functional
[12] = molecular target: Casein kinase I isoform epsilon (Homo sapiens) (UniProt P49674); test: Inhibition of human recombinant CK1 epsilon expressed in baculovirus-infected Sf9 cells assessed as enzyme residual activity using RRKHAAIGSpAYSITA as substrate at 1 uM incubated for 30 mins in presence of ATP by ADP-Glo kinase assay
Casein kinase I isoform epsilon (Homo sapiens), sequence (P49674 whole entry, looked up, canonical isoform): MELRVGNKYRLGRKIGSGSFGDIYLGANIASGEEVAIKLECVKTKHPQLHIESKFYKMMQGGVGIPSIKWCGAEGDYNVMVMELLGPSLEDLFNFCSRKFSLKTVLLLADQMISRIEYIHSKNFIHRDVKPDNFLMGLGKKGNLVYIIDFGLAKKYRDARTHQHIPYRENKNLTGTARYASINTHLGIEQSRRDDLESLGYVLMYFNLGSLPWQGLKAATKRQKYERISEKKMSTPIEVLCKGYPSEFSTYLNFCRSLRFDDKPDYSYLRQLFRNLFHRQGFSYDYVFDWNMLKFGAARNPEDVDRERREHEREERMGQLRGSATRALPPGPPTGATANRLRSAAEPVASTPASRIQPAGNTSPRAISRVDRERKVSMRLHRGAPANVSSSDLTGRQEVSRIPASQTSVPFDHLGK

[13] = molecular target: T4, CDK9/cyclin T1 (Homo sapiens) (UniProt O60563+P50750); test: Inhibition of human recombinant CDK9/cyclin T expressed in baculovirus-infected Sf9 cells assessed as enzyme residual activity using YSPTSPSYSPTSPSYSPTSPSKKKK as substrate at 1 uM incubated for 30 mins in presence of ATP by ADP-Glo kinase assay
[14] = molecular target: T3, Serine/threonine-protein kinase pim-1; test: Inhibition of human recombinant PIM-1 expressed in bacteria assessed as enzyme residual activity using histone H1 as substrate at 1 uM incubated for 30 mins in presence of ATP by ADP-Glo kinase assay
Target sequence in this assay (P11309 whole entry, looked up): as the sequence (P11309 whole entry) above

[15] = molecular target: T2, Cyclin-dependent kinase 5/CDK5 activator 1 (Homo sapiens); test: Inhibition of human recombinant CDK5/p25 expressed in bacteria assessed as enzyme residual activity using histone H1 as substrate at 1 uM incubated for 30 mins in presence of ATP by ADP-Glo kinase assay
[16] = molecular target: Casein kinase I isoform epsilon (Homo sapiens) (UniProt P49674); test: Inhibition of human recombinant CK1 epsilon expressed in baculovirus-infected Sf9 cells assessed as enzyme residual activity using RRKHAAIGSpAYSITA as substrate at 10 uM incubated for 30 mins in presence of ATP by ADP-Glo kinase assay
U2OS [17] = test: Induction of cell cycle arrest in human U2OS cells assessed as proportion of cells at G2/M phase at 2.5 uM incubated for 24 hrs by flow cytometry (reference value: 16%); type: functional
SH-SY5Y = test: cells; conditions: Homo sapiens, 48 h
Description: Antiproliferative activity against human SH-SY5Y cells assessed as reduction in cell viability incubated for 48 hrs by MTS assay

U2OS [18] = test: Induction of cell cycle arrest in human U2OS cells assessed as proportion of cells at S phase at 5 uM incubated for 24 hrs by flow cytometry (reference value: 39%); type: functional
HBL-100 = test: cells; conditions: Homo sapiens, HBL-100, 48 h
Description: Antiproliferative activity against human HBL-100 cells assessed as reduction in cell viability incubated for 48 hrs by MTS assay

HCT-116 = test: cells; conditions: Homo sapiens, HCT-116, 48 h
Description: Antiproliferative activity against human HCT-116 cells assessed as reduction in cell viability incubated for 48 hrs by MTS assay

[19] = molecular target: Dual specificity tyrosine-phosphorylation-regulated kinase 1A (Rattus norvegicus, UniProt Q63470); test: Inhibition of recombinant rat DYRK1A kinase domain (1 to 499 residues) expressed in bacteria using KKISGRLSPIMTEQ as substrate incubated for 30 mins in presence of ATP by ADP-Glo kinase assay
[20] = molecular target: T4, CDK9/cyclin T1 (Homo sapiens); test: Inhibition of human recombinant CDK9/cyclin T expressed in baculovirus-infected Sf9 cells assessed as enzyme residual activity using YSPTSPSYSPTSPSYSPTSPSKKKK as substrate at 10 uM incubated for 30 mins in presence of ATP by ADP-Glo kinase assay
[21] = molecular target: T3, Serine/threonine-protein kinase pim-1; test: Inhibition of human recombinant PIM-1 expressed in bacteria assessed as enzyme residual activity using histone H1 as substrate at 10 uM incubated for 30 mins in presence of ATP by ADP-Glo kinase assay
Target sequence in this assay (P11309 whole entry, looked up): as the sequence (P11309 whole entry) above

[22] = molecular target: Glycogen synthase kinase-3 beta (Homo sapiens) (UniProt P49841); test: Inhibition of human recombinant GSK-3 beta expressed in baculovirus-infected Sf9 cells assessed as enzyme residual activity using YRRAAVPPSPSLSRHSSPHQSpEDEEE as substrate at 10 uM incubated for 30 mins in presence of ATP by ADP-Glo kinase assay
Glycogen synthase kinase-3 beta (Homo sapiens), sequence (P49841 whole entry, looked up): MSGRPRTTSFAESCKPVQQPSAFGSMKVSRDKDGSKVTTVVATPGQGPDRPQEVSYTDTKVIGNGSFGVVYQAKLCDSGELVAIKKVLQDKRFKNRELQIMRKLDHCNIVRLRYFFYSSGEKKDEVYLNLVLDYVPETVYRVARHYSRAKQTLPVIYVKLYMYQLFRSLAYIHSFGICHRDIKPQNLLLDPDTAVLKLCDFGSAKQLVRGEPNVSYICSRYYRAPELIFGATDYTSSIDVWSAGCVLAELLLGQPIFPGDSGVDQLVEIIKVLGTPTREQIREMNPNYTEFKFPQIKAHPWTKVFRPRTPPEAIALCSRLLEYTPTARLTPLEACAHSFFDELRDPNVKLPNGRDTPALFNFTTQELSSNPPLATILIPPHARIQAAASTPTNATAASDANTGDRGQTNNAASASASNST

TERT-RPE1 = test: cells; conditions: Homo sapiens, RPE-1, 48 h
Description: Cytotoxicity against human TERT-RPE1 cells assessed as reduction in cell viability incubated for 48 hrs by MTS assay

U2OS [23] = test: Induction of cell cycle arrest in human U2OS cells assessed as proportion of cells at G2/M phase at 5 uM incubated for 24 hrs by flow cytometry (reference value: 16%); type: functional
[24] = molecular target: Dual specificity tyrosine-phosphorylation-regulated kinase 1A (Rattus norvegicus) (UniProt Q63470); test: Inhibition of recombinant rat DYRK1A kinase domain (1 to 499 residues) expressed in bacteria assessed as enzyme residual activity using KKISGRLSPIMTEQ as substrate at 10 uM incubated for 30 mins in presence of ATP by ADP-Glo kinase assay
[25] = molecular target: Glycogen synthase kinase-3 beta (Homo sapiens) (UniProt P49841); test: Inhibition of human recombinant GSK-3 beta expressed in baculovirus-infected Sf9 cells assessed as enzyme residual activity using YRRAAVPPSPSLSRHSSPHQSpEDEEE as substrate at 1 uM incubated for 30 mins in presence of ATP by ADP-Glo kinase assay
[26] = molecular target: Dual specificity protein kinase CLK1 (Mus musculus) (UniProt P22518); test: Inhibition of recombinant mouse CLK1 expressed in bacteria assessed as enzyme residual activity using GRSRSRSRSRSR as substrate at 10 uM incubated for 30 mins in presence of ATP by ADP-Glo kinase assay
[27] = molecular target: Dual specificity protein kinase CLK1 (Mus musculus, UniProt P22518); test: Inhibition of recombinant mouse CLK1 expressed in bacteria using GRSRSRSRSRSR as substrate incubated for 30 mins in presence of ATP by ADP-Glo kinase assay
Dual specificity protein kinase CLK1, sequence (P22518 whole entry, the tested form may be a part): as the sequence (P22518 whole entry, looked up) above

[28] = molecular target: Dual specificity tyrosine-phosphorylation-regulated kinase 1A (Rattus norvegicus) (UniProt Q63470); test: Inhibition of recombinant rat DYRK1A kinase domain (1 to 499 residues) expressed in bacteria assessed as enzyme residual activity using KKISGRLSPIMTEQ as substrate at 1 uM incubated for 30 mins in presence of ATP by ADP-Glo kinase assay

SMILES | Activity (U2OS [4]) | Activity (U2OS [5]) | Activity [7] | EC50 (U2OS [8]) | Activity [10] | Activity (U2OS [11]) | Activity [12] | Activity [13] | Activity [14] | Activity [15] | Activity [16] | Activity (U2OS [17]) | EC50 (SH-SY5Y) | Activity (U2OS [18]) | EC50 (HBL-100) | EC50 (HCT-116) | Activity [20] | Activity [21] | Activity [22] | EC50 (TERT-RPE1) | other results
CCCNc1ccc2ncc(-c3ccc4[nH]ncc4c3)n2n1 |  |  |  |  |  |  |  |  |  |  |  |  |  |  |  |  |  |  |  |  | Activity (U2OS [1]): 18%; Activity (U2OS [2]): 38%; Activity (U2OS [3]): 44%
c1cc(-c2c[nH]c3cc4cnccc4cc23)ccn1 | 37% | 39% | 10% | 11200 nM | 46% | 48% | 61% | 78% | 49% | 79% | 25% | 13% | 20000 nM | 45% | 24100 nM | 7300 nM | 38% | 9% | 54% | 7800 nM | IC50 [6]: 76 nM; IC50 [9]: 479 nM; IC50 [19]: 513 nM; Activity (U2OS [23]): 18%; Activity [24]: 11%; Activity [25]: 92%; Activity [26]: 17%; IC50 [27]: 693 nM; Activity [28]: 46%
CCn1ncc2cc3cnccc3c(N)c21 | 32% | 40% | 28% | 2700 nM | 34% | 44% | 84% | 80% | 91% | 65% | 48% | 16% | 1200 nM | 43% | 7300 nM | 1200 nM | 50% | 60% | 42% | 300 nM | Activity (U2OS [23]): 25%; Activity [24]: 6%; Activity [25]: 82%; Activity [26]: 8%; Activity [28]: 23%
